Biological target: T1, SOS1 binding to KRAS G12C (Homo sapiens, UniProt Q07889)
T1 construct: consisting of amino acid residues 564 to 1049 which are the catalytic domain; purchased Reaction Biology Corporation MSC-11-502 (SOS1-Strep); MSC-11-538 (KRAS G12C)
T1 sequence (Q07889 564-1049): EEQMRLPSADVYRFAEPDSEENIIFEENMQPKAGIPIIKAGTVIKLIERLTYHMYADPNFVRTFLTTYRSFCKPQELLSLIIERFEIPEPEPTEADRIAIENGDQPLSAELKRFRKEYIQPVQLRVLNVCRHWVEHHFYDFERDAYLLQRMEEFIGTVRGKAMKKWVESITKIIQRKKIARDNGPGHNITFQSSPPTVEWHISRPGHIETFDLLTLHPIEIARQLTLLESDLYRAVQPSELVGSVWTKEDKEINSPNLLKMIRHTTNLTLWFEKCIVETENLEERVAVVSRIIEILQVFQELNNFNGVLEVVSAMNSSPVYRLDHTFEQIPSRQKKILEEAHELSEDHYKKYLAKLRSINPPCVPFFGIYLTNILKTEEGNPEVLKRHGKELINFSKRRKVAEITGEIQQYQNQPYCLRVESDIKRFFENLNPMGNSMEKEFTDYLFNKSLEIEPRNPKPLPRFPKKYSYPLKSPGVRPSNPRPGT
Experiment: SOS1 GTP substitution inhibition test (HTRF/TR-FRET, KRAS G12C-SOS1 binding inhibitory ability)
Assay type: biochemical
Conditions: HTRF, GST-KRAS G12C (2-169), SOS1-Strep (564-1049), 1.6, 8, 40, 200, 1,000 nM
Protocol: In order to determine whether the substitution function of SOS1 binding to KRAS G12C is inhibited by the above-described example compounds, a homogeneous time-resolved fluorescence (HTRF) test was performed using G12C(#MSC-11-538) and SOS1-Strep(#MSC-11-502) purchased from Reaction Biology Corporation (MA, USA). The activity of SOS1 enzyme was determined by measuring the amount of GTP bound to KRAS G12C proteins, using the principle of time-resolved fluorescence energy transfer (TR-FRET). Based on the principle that terbium bound to the GST-binding antibody of the GST-KRAS G12C protein acts as a donor of fluorescence resonance energy transfer (FRET), and the GTP bound to the KRAS G12C protein is labeled with the fluorescent agent DY-647P1 and acts as a receiver, when the more GTP is bound to the KRAS G12C protein by the substitution reaction of SOS1 according to this test, the higher HTRF or FRET signal is measured. To summarize, glutathione S-transferase (GST)-tagged KRAS G12C proteins (consisting of amino acid residues 2 to 169) required for the reaction, streptavidin-tagged SOS1 proteins (consisting of amino acid residues 564 to 1049 which are the catalytic domain), anti-GST antibody (#61[…]) purchased from CISBIO corporation, nucleic acid (#NU-820-647P1) purchased from Jena Bioscience GmbH were mixed in a buffer solution formed from 10 mM HEPES pH7.4, 150 mM NaCl, 5 mM MgCl2, and 1 mM dithiothreitol (DTT), and the mixture was added to a 384-well plate and reacted at room temperature. Next, FRET signals were measured with a Perkin Elmer Envision microplate reader. In this case, an excitation signal (excitation) was measured at 320 nm, and an emission signal (emission) was measured at 615/665 nm. The fluorescence measurement value when the SOS1 protein was not included was calculated as a background signal value, and the background signal value was subtracted from all of the measured HTRF values. The fluorescence measurement value when the synthesized compound was not included was measured as a control value, and this value was selected as a reference point of 100%. For each of the example compounds, fluorescence was measured at concentrations of 1.6, 8, 40, 200, and 1,000 nM (5 points, 5-fold), and the 50% activity inhibition value (IC50) of each of the compounds was calculated using GraphPad Prism. When the IC50 value was 50 nM or less, the inhibitory ability was denoted as +++. When the IC50 value was more than 50 nM and 100 nM or less, the inhibitory ability was denoted as ++. When the IC50 value was more than 100 nM, the inhibitory ability was denoted as +.

CNc1cc2c(N[C@H](C)c3cc(N)cc(C(F)(F)F)c3)nc(C)nc2cc1C(=O)N1CCC1 [Example 62, (R)-(4-((1-(3-amino-5-(trifluoromethyl)phenyl)ethyl)amino)-2-methyl-6-(methylamino)quinazoline-7-yl)(azetidine-1-yl)methanone]
IC50: 50 to 100 nM

CNc1cc2c(N[C@H](C)c3cc(N)cc(C(F)(F)F)c3)nc(C)nc2cc1C(=O)N1CCN(C)CC1 [Example 57, (R)-(4-((1-(3-amino-5-(trifluoromethyl)phenyl)ethyl)amino)-2-methyl-6-(methylamino)quinazoline-7-yl)(4-methylpiperazin-1-yl)methanone]
IC50: 50 to 100 nM

COc1cc2c(N[C@H](C)c3cc(N)cc(C#N)c3)nc(C)nc2cc1C(=O)N1CCOCC1 [Example 22, (R)-3-amino-5-(1-((6-methoxy-2-methyl-7-(morpholine-4 carbonyl)quinazolin-4-yl)amino)ethyl)benzonitrile]
IC50: > 100 nM

CCNc1cc2c(N[C@H](C)c3cc(N)cc(C(F)F)c3F)nc(C)nc2cc1C(=O)N1CCOCC1 [Example 52, (R)-(4-((1-(5-amino-3-(difluoromethyl)-2-fluorophenyl)ethyl)amino)-6-(ethylamino)-2-methylquinazoline-7-yl)(morpholino)methanone]
IC50: 50 to 100 nM

CNc1cc2c(N[C@H](C)c3cc(N)cc(C(F)(F)F)c3)nc(C)nc2cc1C(=O)N1CCSCC1 [Example 60, (R)-(4-((1-(3-amino-5-(trifluoromethyl)phenyl)ethyl)amino)-2-methyl-6-(methylamino)quinazolin-7-yl)(thiomorpholino)methanone]
IC50: ≤ 50 nM

CNc1cc2c(N[C@H](C)c3cc(C)cc(N)c3)nc(C)nc2cc1C(=O)N1CCOCC1 [Example 65, (R)-(4-((1-(3-amino-5-methylphenyl)ethyl)amino)-2-methyl-6-(methylamino)quinazolin-7-yl)(morpholino)methanone]
IC50: 50 to 100 nM

CNc1cc2c(N[C@H](C)c3cc(N)cc(C(F)(F)F)c3)nc(C)nc2cc1C(=O)N1CCNCC1 [Example 61, (R)-(4-((1-(3-amino-5-(trifluoromethyl)phenyl)ethyl)amino)-2-methyl-6-(methylamino)quinazoline-7-yl)(piperazine-1-yl)methanone]
IC50: ≤ 50 nM

CCNc1cc2c(N[C@H](C)c3cc(N)cc(C(F)(F)F)c3)nc(C)nc2cc1C(=O)N1CCOCC1 [Example 46, (R)-(4-((1-(3-amino-5-(trifluoromethyl)phenyl)ethyl)amino)-6-(ethylamino)-2-methylquinazoline-7-yl)(morpholino)methanone]
IC50: 50 to 100 nM

COc1cc2c(N[C@H](C)c3cc(N)cc(C(F)F)c3F)nc(C)nc2cc1OC1CCOCC1 [Example 37, (R)-N-(1-(5-amino-3-(difluoromethyl)-2-fluorophenyl)ethyl)-6-methoxy-2-methyl-7-((tetrahydro-2H-pyran-4-yl)oxy)quinazoline-4-amine]
IC50: > 100 nM

CNc1cc2c(N[C@H](C)c3cc(N)cc(C(F)(F)F)c3)nc(C)nc2cc1CN1CCOCC1 [Example 49, (R)-N^4-(1-(3-amino-5-(trifluoromethyl)phenyl)ethyl)-N^6,2-dimethyl-7-(morpholinomethyl)quinazoline-4,6-diamine]
IC50: 50 to 100 nM

COc1cc2c(N[C@H](C)c3cc(N)cc(C(F)(F)F)c3C)nc(C)nc2cc1C(=O)N1CCOCC1 [Example 16, (R)-(4-((1-(5-amino-2-methyl-3-(trifluoromethyl)phenyl)ethyl)amino)-6-methoxy-2-methylquinazolin-7-yl)(morpholino)methanone]
IC50: 50 to 100 nM

CNc1cc2c(N[C@H](C)c3cc(N)cc(C(F)F)c3F)nc(C)nc2cc1C(=O)N1CCS(=O)(=O)CC1 [Example 64, (R)-(4-((1-(5-amino-3-(difluoromethyl)-2-fluorophenyl)ethyl)amino)-2-methyl-6-(methylamino)quinazoline-7-yl)(1,1-dioxothiomorpholino)methanone]
IC50: ≤ 50 nM

COc1cc2c(N[C@H](C)c3cc(N)cc(C(F)F)c3F)nc(C)nc2cc1CN1CCOCC1 [Example 35, (R)-N-(1-(5-amino-3-(difluoromethyl)-2-fluorophenyl)ethyl)-6-methoxy-2-methyl-7-(morpholinomethyl)quinazoline-4-amine]
IC50: ≤ 50 nM

COc1cc2c(N[C@H](C)c3cc(N)cc(C(F)(F)F)c3)nc(C)nc2cc1C(=O)N1C[C@@H](C)N[C@@H](C)C1 [Example 3, (4-(((R)-1-(3-amino-5-(trifluoromethyl)phenyl)ethyl)amino)-6-methoxy-2-methylquinazoline-7-yl)((3R, S)-3,5-dimethylpiperazin-1-yl)methanone]
IC50: > 100 nM

COc1cc2c(N[C@H](C)c3cc(N)cc(C(F)(F)F)c3)nc(C)nc2cc1C(=O)N1CCSC1 [Example 20, (R)-(4-((1-(3-amino-5-(trifluoromethyl)phenyl)ethyl)amino)-6-methoxy-2-methylquinazolin-7-yl)(thiazolidine-3-yl)methanone]
IC50: ≤ 50 nM

CNc1cc2c(N[C@H](C)c3cc(N)cc(C(F)F)c3)nc(C)nc2cc1C(=O)N1CCOCC1 [Example 51, (R)-(4-((1-(3-amino-5-(difluoromethyl)phenyl)ethyl)amino)-2-methyl-6-(methylamino)quinazoline-7-yl)(morpholino)methanone]
IC50: ≤ 50 nM

COc1cc2c(NC(C)c3cc(-c4ccccc4CO)cs3)nc(C)nc2cc1C(=O)N1CCOCC1 (centres unmarked) [Example 14]
IC50: > 100 nM

CNc1cc2c(N[C@H](C)c3cc(N)cc(C(F)F)c3F)nc(C)nc2cc1C(=O)N1CC2COCC2C1 (stereo partly drawn) [Example 63, (4-(((R)-1-(5-amino-3-(difluoromethyl)-2-fluorophenyl)ethyl)amino)-2-methyl-6-(methylamino)quinazoline-7-yl)(tetrahydro-1H-furo[3,4-c]pyrrol-5(3H)-yl)methanone]
IC50: ≤ 50 nM

Cc1nc(N[C@H](C)c2cc(N)cc(C(F)(F)F)c2)c2cc(O[C@H]3CCOC3)c(C(=O)N3CCOCC3)cc2n1 [Example 27, (4-(((R)-1-(3-amino-5-(trifluoromethyl)phenyl)ethyl)amino)-2-methyl-6-(((S)-tetrahydrofuran-3-yl)oxy)quinazolin-7-yl)(morpholino)methanone]
IC50: 50 to 100 nM

COc1cc2c(N[C@H](C)c3cc(N)cc(C(F)(F)F)c3)nc(C)nc2cc1C(=O)N1CCSCC1 [Example 4, (R)-(4-((1-(3-amino-5-(trifluoromethyl)phenyl)ethyl)amino)-6-methoxy-2-methylquinazoline-7-yl)(thiomorpholino)methanone]
IC50: 50 to 100 nM

COc1cc2c(NC(C)c3cc(-c4cccc5c4CNCC5)cs3)nc(C)nc2cc1C(=O)N1CCOCC1 (centres unmarked) [Example 8, (6-methoxy-2-methyl-4-((1-(4-(1,2,3,4-tetrahydroisoquinolin-8-yl)thiophen-2-yl)ethyl)amino)quinazoline-7-yl)(morpholino)methanone]
IC50: > 100 nM

CCNc1cc([C@@H](C)Nc2nc(C)nc3cc(C(=O)N4CCOCC4)c(OC)cc23)cc(C(F)(F)F)c1 [Example 31, (R)-(4-((1-(3-(ethylamino)-5-(trifluoromethyl)phenyl)ethyl)amino)-6-methoxy-2-methylquinazolin-7-yl)(morpholino)methanone]
IC50: 50 to 100 nM

COc1cc2c(N[C@H](C)c3cc(N)cc(C(F)(F)F)c3)nc(C)nc2cc1C(=O)N1CC2COCC2C1 (stereo partly drawn) [Example 5, (4-(((R)-1-(3-amino-5-(trifluoromethyl)phenyl)ethyl)amino)-6-methoxy-2-methylquinazoline-7-yl)(tetrahydro-1H-furo[3,4-c]pyrrol-5(3H)-yl)methanone]
IC50: > 100 nM
